Results taken from patent US20190255078A1, “TOPICAL COMPOSITIONS WITH STABLE SOLUBILIZED SELECTIVE RETINOIDS AND/OR TETRACYCLINE-CLASS ANTIBIOTICS” (BioPharmX, Inc., priority 2018, published 2019).

Columns and labels:
[1] = cited from earlier work
[2] = tested on: antibiotic-resistant P. acnes; conditions: clinical isolates of antibiotic-resistant P. acnes; cited from earlier work
[3] = Solubility of tazarotene in solvents and solvent mixtures (Example 2); type: physicochemical
From the text: Tazarotene is known to have low solubility in many traditional solvent systems. […] However, compositions with ethanol as the only solvent are typically irritating to the skin, have a pungent smell, and leave the skin feeling dry. […] It has been discovered that that mixtures of ethanol and carboxylate esters have higher solubility of tazarotene than would be expected from mixtures of the components individually.
Tazarotene is desirably used in compositions at a concentration of 0.01% to 0.20% (w/w). […].
As shown in Table 5 and FIG. 2, the tazarotene solubility in selected binary and tertiary mixtures was even higher than the solubility of tazarotene in ethanol alone. […] Even small amounts of carboxylate esters can have unexpectedly large effects.
Thus, the tazarotene in selected ranges of binary mixtures was higher than the solubility of tazarotene in the individual components of the solvent mixture.

[4] = Stability of tazarotene in solution with antioxidants and/or magnesium chloride (Example 3A); type: physicochemical
Protocol: Retinoids can undergo chemical degradation in solutions due to oxidation. However, many antioxidants are not effective in sufficiently stabilizing retinoids in a pharmaceutical composition. A study was performed in which samples consisting of 0.05% (w/w) tazarotene dissolved in 79.15% (w/w) ethanol (anhydrous), 0.6% hydroxypropyl cellulose HF (KLUCEL HF), 20% propylene glycol, and 0.20% (w/w) of an antioxidant were stored in a sealed amber glass container for 8 weeks at 40° C. For the tested composition with no antioxidant, the additional 0.20% was made up with ethanol (anhydrous).
Only one of the antioxidants improved the stability of tazarotene: propyl gallete, reducing the degradation from 5% to 1% over the 8-week period. In contrast, the antioxidant ascorbic acid increased the degradation from 5% to approximately 50% over the 8-week period.
Similarly, divalent cations such as magnesium, are also ineffective in stabilizing tazarotene. A mixture comprising ethanol, 0.6% magnesium chloride, and 0.05% tazarotene was stored in a sealed amber glass container for 13 weeks at 40° C.
A mixture comprising ethanol, 0.6% magnesium chloride, 0.2% sodium metabisulfite, and 0.05% tazarotene was stored in a sealed amber glass container for 13 weeks at 40° C. The tazarotene degraded by 3% over the 13-week period in comparison to 5% degradation for a mixture comprising ethanol and 0.05% tazarotene (and without magnesium chloride or an antioxidant) over the same period. […] Measurements for an additional composition comprising ethanol, 0.20% sodium metabisulfite, and 0.05% tazarotene (without the presence of magnesium chloride) were taken at 0, 1, 2, 4, and 8 weeks. Only the data at 0 and 8 weeks are presented in FIG. 3A for this composition. Data for this composition was not captured at 13 weeks.

[5] = Room temperature stability of tazarotene and minocycline in single and combination compositions (Example 5); type: physicochemical; conditions: 18 months
[6] = Stability of tazarotene in solution with antioxidants and/or magnesium chloride (Example 3A); type: physicochemical; conditions: ethanol (anhydrous), sodium metabisulfite, sealed amber glass
[7] = Stability at 40° C. of single and dual API compositions of Table 13-1 (Example 10); conditions: 6 months
Protocol: The exemplary compositions comprised tazarotene, minocycline, or a combination thereof. Each composition was stored at room temperature for 2 and 5 weeks in a sealed amber glass container at 40° C.

COc1ccc(-c2ccc3cc(C(=O)O)ccc3c2)cc1C12CC3CC(CC(C3)C1)C2 [Adapalene, 6-[3-(1-adamantyl)-4-methoxy-phenyl]naphthalene-2-carboxylic acid]
log P [1]: approximately 6

C[C@H]1c2cccc(O)c2C(=O)C2=C(O)[C@]3(O)C(=O)C(C(N)=O)=C(O)[C@@H](N(C)C)[C@@H]3[C@@H](O)[C@@H]21 [doxycycline, (4S,4aR,5S,5aR,6R,12aS)-4-(dimethylamino)-3,5,10,12,12a-pentahydroxy-6-methyl-1,11-dioxo-1,4,4a,5,5a,6,11,12a-octahydrotetracene-2-carboxamide]
average MIC90 [2]: 8 mg/L
Log P ([1]; free base form): about −0.02

CC[C@H]1OC(=O)[C@H](C)[C@@H](O[C@H]2C[C@@](C)(OC)[C@@H](O)[C@H](C)O2)[C@H](C)[C@@H](O[C@@H]2O[C@H](C)C[C@H](N(C)C)[C@H]2O)[C@](C)(O)C[C@@H](C)C(=O)[C@H](C)[C@@H](O)[C@]1(C)O [erythromycin]
average MIC90 [2]: ~512 mg/L

CCOC(=O)c1ccc(C#Cc2ccc3c(c2)C(C)(C)CCS3)nc1 [tazarotene, ethyl 6-[2-(4,4-dimethyl-2,3-dihydrothiochromen-6-yl)ethynyl]pyridine-3-carboxylate]
tazarotene solubility relative to solubility in ester alone ([3]; ethanol and at least one carboxylate ester, binary and tertiary mixtures): 2-5 times
TAZAROTENE SOLUBILITY ([3]; ethanol and diisopropyl adipate 1:1 (W/W)): 39.0 mg/g
TAZAROTENE SOLUBILITY ([3]; ethanol and diisopropyl adipate 9:1 (W/W)): 23.3 mg/g
TAZAROTENE SOLUBILITY ([3]; ethanol and dimethyl succinate 20:80 (W/w)): 109.42 mg/g
TAZAROTENE SOLUBILITY ([3]; ethanol and dimethyl succinate 40:60 (W/w)): 103.65 mg/g
TAZAROTENE SOLUBILITY ([3]; ethanol and dimethyl succinate 60:40 (W/w)): 67.18 mg/g
TAZAROTENE SOLUBILITY ([3]; ethanol and dimethyl succinate 80:20 (W/w)): 45.30 mg/g
TAZAROTENE SOLUBILITY ([3]; ethanol and isopropyl myristate 1:1 (W/W)): 37.8 mg/g
TAZAROTENE SOLUBILITY ([3]; ethanol and isopropyl myristate 9:1 (W/W)): 34.8 mg/g
TAZAROTENE SOLUBILITY ([3]; ethanol and medium chain triglyceride 1:1 (W/W)): 38.6 mg/g
TAZAROTENE SOLUBILITY ([3]; ethanol and medium chain triglyceride 9:1 (W/W)): 23.5 mg/g
TAZAROTENE SOLUBILITY ([3]; ethanol and propyl acetate 20:80 (W/w)): 179.99 mg/g
TAZAROTENE SOLUBILITY ([3]; ethanol and propyl acetate 40:60 (W/w)): 139.85 mg/g
TAZAROTENE SOLUBILITY ([3]; ethanol and propyl acetate 60:40 (W/w)): 80.16 mg/g
TAZAROTENE SOLUBILITY ([3]; ethanol and propyl acetate 80:20 (W/w)): 44.12 mg/g
TAZAROTENE SOLUBILITY ([3]; ethanol and propylene glycol 1:1 (W/W)): 10.3 mg/g
TAZAROTENE SOLUBILITY ([3]; ethanol and propylene glycol 4:1 (W/W)): 22.3 mg/g
TAZAROTENE SOLUBILITY ([3]; ethanol, glycerol, and isopropyl myristate 7:2:1 (W/W)): 30.3 mg/g
TAZAROTENE SOLUBILITY ([3]; ethanol, propylene glycol, and diisopropyl adipate 7:2:1 (W/W)): 24.9 mg/g
TAZAROTENE SOLUBILITY ([3]; ethanol, propylene glycol, and dimethyl succinate 7:2:1 (W/W)): 30.1 mg/g
TAZAROTENE SOLUBILITY ([3]; ethanol, propylene glycol, and isopropyl myristate 7:2:1 (W/W)): 32.3 mg/g
TAZAROTENE SOLUBILITY ([3]; ethanol, propylene glycol, and medium chain triglycerides 7:2:1 (W/W)): 24.4 mg/g
TAZAROTENE SOLUBILITY ([3]; ethanol, propylene glycol, and propyl acetate 7:2:1 (W/W)): 29.1 mg/g
TAZAROTENE SOLUBILITY ([3]; in diisopropyl adipate): 1.21 mg/g
TAZAROTENE SOLUBILITY ([3]; in dimethyl succinate): 63.18 mg/g
TAZAROTENE SOLUBILITY ([3]; in isopropyl myristate): 0.75 mg/g
TAZAROTENE SOLUBILITY ([3]; in medium chain triglycerides): 0.16 mg/g
TAZAROTENE SOLUBILITY ([3]; in propyl acetate): 138.04 mg/g
TAZAROTENE SOLUBILITY ([3]; in propylene glycol): 0.0054 mg/g
TAZAROTENE SOLUBILITY ([3]; propylene glycol and diisopropyl adipate 2:0 (W/W)): 5.6 mg/g
TAZAROTENE SOLUBILITY ([3]; propylene glycol and dimethyl succinate 2:1 (W/W)): 1.27 mg/g
TAZAROTENE SOLUBILITY ([3]; propylene glycol and isopropyl myristate 2:1 (W/W)): 6.0 mg/g
TAZAROTENE SOLUBILITY ([3]; propylene glycol and propyl acetate 2:1 (W/W)): 1.55 mg/g
solubility for tazarotene in combined solvent systems ([3]; selected ratios of carboxylate esters to monohydric aliphatic alcohol): at least 25 mg/g
Reduction in Tazarotene concentration after 8 weeks at 40° C. (% degradation relative to baseline tazarotene) ([4]; 0.05% tazarotene in ethanol/20% propylene glycol/0.6% HPC, antioxidant: none): 5%
Reduction in Tazarotene concentration after 8 weeks at 40° C. (% degradation relative to baseline tazarotene) ([4]; antioxidant: 0.20% BHT): 5%
Reduction in Tazarotene concentration after 8 weeks at 40° C. (% degradation relative to baseline tazarotene) ([4]; antioxidant: 0.20% Dl-Alpha Tocopherol): 5%
Reduction in Tazarotene concentration after 8 weeks at 40° C. (% degradation relative to baseline tazarotene) ([4]; antioxidant: 0.20% propyl gallete): 1%
Reduction in Tazarotene concentration after 8 weeks at 40° C. (% degradation relative to baseline tazarotene) ([4]; antioxidant: 0.20% sodium metabisulfite (SMBS)): 8%
Reduction in Tazarotene concentration after 8 weeks at 40° C. (% degradation relative to baseline tazarotene) ([4]; antioxidant: 0.20% sodium nitrate): 10%
Reduction in Tazarotene concentration after 8 weeks at 40° C. (% degradation relative to baseline tazarotene) ([4]; antioxidant: 0.20% sodium sulfite): 10%
Reduction in Tazarotene concentration after 8 weeks at 40° C. (% degradation relative to baseline tazarotene) ([4]; antioxidant: 0.20% tocopherol): 5%
tazarotene degradation over 13 weeks at 40° C. ([4]; ethanol and 0.05% tazarotene, without magnesium chloride or antioxidant): 5%
tazarotene degradation over 13 weeks at 40° C. ([4]; ethanol, 0.6% magnesium chloride, 0.05% tazarotene, sealed amber glass): 13%
tazarotene degradation over 13 weeks at 40° C. ([4]; ethanol, 0.6% magnesium chloride, 0.2% sodium metabisulfite, 0.05% tazarotene): 3%
stability when added in combination versus each drug alone ([5]; compositions of Table 9): more stable
stability in compositions of Table 9 ([5]; sealed amber glass): stable after 18 months
tazarotene degradation when stored for 12 months at room temperature [6]: less than 7%
log P [1]: ~4.3
stability when added in combination versus alone ([7]; compositions of Table 13-1): more stable
stability in single API and dual API compositions ([7]; compositions of Table 13-1 (FIGS. 8A-8B)): stable
